Measurements taken from article PMC11277489, “Novel Piperazine Derivatives of Vindoline as Anticancer Agents” (International Journal of Molecular Sciences, 2024).

Columns and labels:
SK-MEL-28 = assay: NCI60 one-dose screen (10 μM), Melanoma; assay type: cell-based; conditions: Homo sapiens, SK-MEL-28, read-out: Growth percent rate
SW-620 = assay: NCI60 one-dose screen (10 μM), Colon Cancer; assay type: cell-based; conditions: Homo sapiens, SW-620, read-out: Growth percent rate
K-562 = assay: NCI60 one-dose screen (10 μM), Leukemia; assay type: cell-based; conditions: Homo sapiens, K562, read-out: Growth percent rate
SF-295 = assay: NCI60 one-dose screen (10 μM), CNS Cancer; assay type: cell-based; conditions: Homo sapiens, SF-295, read-out: Growth percent rate
HS 578T = assay: NCI60 one-dose screen (10 μM), Breast Cancer; assay type: cell-based; conditions: Homo sapiens, Hs-578T, read-out: Growth percent rate
RPMI-8226 = assay: NCI60 one-dose screen (10 μM), Leukemia; assay type: cell-based; conditions: Homo sapiens, RPMI-8226, read-out: Growth percent rate
SF-268 = assay: NCI60 one-dose screen (10 μM), CNS Cancer; assay type: cell-based; conditions: Homo sapiens, SF-268, read-out: Growth percent rate
MALME-3M = assay: NCI60 one-dose screen (10 μM), Melanoma; assay type: cell-based; conditions: Homo sapiens, Malme-3M, read-out: Growth percent rate
RXF 393 = assay: NCI60 one-dose screen (10 μM), Renal Cancer; assay type: cell-based, human; conditions: Homo sapiens, RXF 393, read-out: Growth percent rate
SK-MEL-5 = assay: NCI60 one-dose screen (10 μM), Melanoma; assay type: cell-based, human; conditions: Homo sapiens, SK-MEL-5, read-out: Growth percent rate
UACC-257 = assay: NCI60 one-dose screen (10 μM), Melanoma; assay type: cell-based; conditions: Homo sapiens, UACC-257, read-out: Growth percent rate
EKVX = assay: NCI60 one-dose screen (10 μM), Non-small Cell Lung Cancer; assay type: cell-based; conditions: Homo sapiens, read-out: Growth percent rate
SF-539 = assay: NCI60 one-dose screen (10 μM), CNS Cancer; assay type: cell-based, human; conditions: Homo sapiens, SF-539, read-out: Growth percent rate
HCT-15 = assay: NCI60 one-dose screen (10 μM), Colon Cancer; assay type: cell-based; conditions: Homo sapiens, HCT-15, read-out: Growth percent rate
U251 = assay: NCI60 one-dose screen (10 μM), CNS Cancer; assay type: cell-based; conditions: Homo sapiens, U-251, read-out: Growth percent rate
ACHN = assay: NCI60 one-dose screen (10 μM), Renal Cancer; assay type: cell-based; conditions: Homo sapiens, read-out: Growth percent rate
OVCAR-8 = assay: NCI60 one-dose screen (10 μM), Ovarian Cancer; assay type: cell-based; conditions: Homo sapiens, OVCAR-8, read-out: Growth percent rate
COLO 205 = assay: NCI60 one-dose screen (10 μM), Colon Cancer; assay type: cell-based, human; conditions: Homo sapiens, COLO 205, read-out: Growth percent rate
IGROV1 = assay: NCI60 one-dose screen (10 μM), Ovarian Cancer; assay type: cell-based; conditions: Homo sapiens, IGROV-1, read-out: Growth percent rate
CAKI-1 = assay: NCI60 one-dose screen (10 μM), Renal Cancer; assay type: cell-based; conditions: Homo sapiens, CAKI-1, read-out: Growth percent rate
786–0 = assay: NCI60 one-dose screen (10 μM), Renal Cancer; assay type: cell-based; conditions: Homo sapiens, 786-0, read-out: Growth percent rate
[1] = system: 60 human tumor cell lines (NCI60); assay: NCI60 one-dose screen (10 μM), whole panel; assay type: cell-based
LOX IMVI = assay: NCI60 one-dose screen (10 μM), Melanoma; assay type: cell-based, human; conditions: Homo sapiens, LOX IMVI, read-out: Growth percent rate
MOLT-4 = assay: NCI60 one-dose screen (10 μM), Leukemia; assay type: cell-based, human; conditions: Homo sapiens, MOLT-4, read-out: Growth percent rate
SNB-19 = assay: NCI60 one-dose screen (10 μM), CNS Cancer; assay type: cell-based; conditions: Homo sapiens, SNB-19, read-out: Growth percent rate
M14 = assay: NCI60 one-dose screen (10 μM), Melanoma; assay type: cell-based; conditions: Homo sapiens, M14, read-out: Growth percent rate
HT29 = assay: NCI60 one-dose screen (10 μM), Colon Cancer; assay type: cell-based; conditions: Homo sapiens, HT-29, read-out: Growth percent rate
NCI-H23 = assay: NCI60 one-dose screen (10 μM), Non-small Cell Lung Cancer; assay type: cell-based; conditions: Homo sapiens, NCI-H23, read-out: Growth percent rate
MDA-MB-435 = assay: NCI60 one-dose screen (10 μM), Melanoma; assay type: cell-based; conditions: Homo sapiens, MDA-MB-435, read-out: Growth percent rate
A498 = assay: NCI60 one-dose screen (10 μM), Renal Cancer; assay type: cell-based; conditions: Homo sapiens, A498, read-out: Growth percent rate
NCI-H522 = assay: NCI60 one-dose screen (10 μM), Non-small Cell Lung Cancer; assay type: cell-based; conditions: Homo sapiens, NCI-H522, read-out: Growth percent rate
SN12C = assay: NCI60 one-dose screen (10 μM), Renal Cancer; assay type: cell-based; conditions: Homo sapiens, read-out: Growth percent rate
OVCAR-4 = assay: NCI60 one-dose screen (10 μM), Ovarian Cancer; assay type: cell-based; conditions: Homo sapiens, OVCAR-4, read-out: Growth percent rate
HOP-62 = assay: NCI60 one-dose screen (10 μM), Non-small Cell Lung Cancer; assay type: cell-based; conditions: Homo sapiens, HOP-62, read-out: Growth percent rate
HCC-2998 = assay: NCI60 one-dose screen (10 μM), Colon Cancer; assay type: cell-based; conditions: Homo sapiens, HCC 2998, read-out: Growth percent rate
HL-60(TB) = assay: NCI60 one-dose screen (10 μM), Leukemia; assay type: cell-based; conditions: Homo sapiens, HL-60, read-out: Growth percent rate
MCF7 = assay: NCI60 one-dose screen (10 μM), Breast Cancer; assay type: cell-based; conditions: Homo sapiens, MCF7, read-out: Growth percent rate
TK-10 = assay: NCI60 one-dose screen (10 μM), Renal Cancer; assay type: cell-based; conditions: Homo sapiens, TK-10, read-out: Growth percent rate
NCI-H460 = assay: NCI60 one-dose screen (10 μM), Non-small Cell Lung Cancer; assay type: cell-based; conditions: Homo sapiens, NCI-H460, read-out: Growth percent rate
A549/ATCC = assay: as above; assay type: cell-based; conditions: Homo sapiens, A549, read-out: Growth percent rate
NCI-H322M = assay: as above; assay type: cell-based; conditions: Homo sapiens, read-out: Growth percent rate
HCT-116 = assay: NCI60 one-dose screen (10 μM), Colon Cancer; assay type: cell-based; conditions: Homo sapiens, HCT-116, read-out: Growth percent rate

CCC12C=CCN3CCC4(c5ccc(OC)cc5N(C)C4C(O)(C(=O)OC)C1O)C32 (stereo not shown) [Compound 13, 17-desacetylvindoline]
activity at 10 µM (SK-MEL-28): 92.1%
activity at 10 µM (SW-620): 99.4%
activity at 10 µM (K-562): 101%
activity at 10 µM (SF-295): 101%
activity at 10 µM (HS 578T): 100%
activity at 10 µM (RPMI-8226): 99.4%
activity at 10 µM (SF-268): 107%
activity at 10 µM (MALME-3M): 90.8%
activity at 10 µM (RXF 393): 104%
activity at 10 µM (SK-MEL-5): 90.5%
activity at 10 µM (UACC-257): 96.7%
activity at 10 µM (EKVX): 98.9%
activity at 10 µM (SF-539): 96.6%
activity at 10 µM (HCT-15): 99.2%
activity at 10 µM (U251): 99.3%
activity at 10 µM (ACHN): 96%
activity at 10 µM (OVCAR-8): 103%
activity at 10 µM (COLO 205): 118%
activity at 10 µM (IGROV1): 95.8%
activity at 10 µM (CAKI-1): 98.2%
activity at 10 µM (786–0): 97.7%
antiproliferative effect (in words) ([1]; 10 μM one-dose, NCI60): a notable antiproliferative effect was not shown
activity at 10 µM ([1]; Homo sapiens, read-out: Growth percent rate, Mean): 98.8%
activity at 10 µM (LOX IMVI): 97.5%
activity at 10 µM (MOLT-4): 100%
activity at 10 µM (SNB-19): 97.4%
activity at 10 µM (M14): 94.7%
activity at 10 µM (HT29): 102%
activity at 10 µM (NCI-H23): 93%
activity at 10 µM (MDA-MB-435): 89%
activity at 10 µM (A498): 104%
activity at 10 µM (NCI-H522): 94%
activity at 10 µM (SN12C): 99%
activity at 10 µM (OVCAR-4): 95.8%
activity at 10 µM (HOP-62): 102%
activity at 10 µM (HCC-2998): 96.8%
activity at 10 µM (HL-60(TB)): 119%
activity at 10 µM (MCF7): 95.7%
activity at 10 µM (TK-10): 93.3%
activity at 10 µM (NCI-H460): 106%
activity at 10 µM (A549/ATCC): 103%
activity at 10 µM (NCI-H322M): 92.8%
activity at 10 µM (HCT-116): 99.2%
